According to patent US20020137929A1, “1 - (3-heterocyclylphenyl) isothiourea, -isourea, -guanidine and -amidine herbicidal agents” (Intellectual Property Department, BASF Aktiengesellschaft, priority 1998, published 2002):

What was measured:
[1] = tested on: GLXMAW (Soybean, Williams); experiment: Postemergence herbicidal evaluation; assay type: in vivo, Glycine max, (L.) Merr. cv Williams; details: postemergence
Method in brief: (§1)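 First, seedlings were raised for around two weeks. Next, test material in 50/50 acetone/water containing 0.5% TWEEN 20 was sprayed through a nozzle at 40 psi, equivalent to about 0.0156–0.500 kg/ha. Finally, after 4–5 weeks in the greenhouse, plants were rated 0–9.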

[2] = tested on: ECHORC (Watergrass (Calif.)); experiment: Preemergence weed control under flooded paddy conditions; assay type: in vivo, Echinochloa oryzoides; details: rated 3-4 weeks after treatment
Method in brief: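 Seeds or propagules sown in top 0.5 cm of silt loam soil, flooded 1.5 to 3 cm above surface throughout. Compound in 50/50 v/v aqueous/acetone pipetted into flood water at about 0.0313 to 0.500 kg/ha. Visual 0-9 rating versus control after three to four weeks in greenhouse.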

SETVI (Foxtail, Green) = experiment: Preemergence herbicidal evaluation; assay type: in vivo, Setaria viridis; details: preemergence, rated 4-5 weeks after treatment, 0-9 scale
Method in brief: (§2)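 Rating at 4–5 wk post-spray on a 0–9 visual scale vs control. Application: aqueous acetone, ~0.0156–0.500 kg/ha, to soil surface after seeding, preemergence.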

GALAP (Galium) [3] = experiment: Preemergence herbicidal evaluation; assay type: in vivo, Galium aparine; details: preemergence, rated 4-5 weeks after treatment, 0-9 scale
Method in brief: as §2

[4] = tested on: SAGPY (Arrowhead (Pygmaea)); experiment: Preemergence weed control under flooded paddy conditions; assay type: in vivo, Sagittaria pygmaea; details: rated 3-4 weeks after treatment
Method in brief: (§3)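 Seeds or propagules sown in silt loam kept flooded 1.5-3 cm; compounds in 50/50 acetone/water pipetted into flood water at about 0.0313 to 0.500 kg/ha. Greenhouse; visual 0-9 rating versus untreated control 3-4 weeks after treatment.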

GALAP (Galium) [5] = experiment: Postemergence herbicidal evaluation; assay type: in vivo, Galium aparine; details: postemergence
Method in brief: as §1

[6] = tested on: TRZAWR (Wheat, Winter, cv Riband); experiment: Postemergence herbicidal evaluation; assay type: in vivo, Triticum aestivum; details: postemergence
Method in brief: as §1

ORYSAT (Rice, Tebonnet) = experiment: Preemergence herbicidal evaluation; assay type: in vivo, Oryza sativa, (L.) Tebonnet; details: preemergence, rated 4-5 weeks after treatment, 0-9 scale
Method in brief: as §2

AMBEL (Ragweed, Common) = experiment: Postemergence herbicidal evaluation; assay type: in vivo, Ambrosia artemisifolia; details: postemergence
Method in brief: as §1

CYPSE (Flatsedge) = experiment: Preemergence weed control under flooded paddy conditions; assay type: in vivo, Cyperus serotinus; details: rated 3-4 weeks after treatment
Method in brief: as §3

MOOVA (Monochoria) = experiment: as above; assay type: in vivo, Monochoria vaginalis; details: rated 3-4 weeks after treatment
Method in brief: as §3

[7] = tested on: ECHORC (Watergrass (Calif.)); experiment: Postemergence weed control under flooded paddy conditions; assay type: in vivo, Echinochloa oryzoides; details: postemergence weeds, rated 3 to 4 weeks after treatment
Method in brief: (§4)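 Weeds 3 to 5 cm tall and rice seedlings at the 1.5 to 2.5 leaf stage were flooded, with water held 1.5 to 3 cm above the soil. Compounds in 50/50 v/v aqueous/acetone went into the flood water at about 0.0313 to 0.500 kg/ha. Visual 0-9 ratings versus control were made 3 to 4 weeks later.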

CASOB (Sicklepod) = experiment: Postemergence herbicidal evaluation; assay type: in vivo, Cassia obtusifolia; details: postemergence
Method in brief: as §1

[8] = tested on: SAGPY (Arrowhead (Pygmaea)); experiment: Postemergence weed control under flooded paddy conditions; assay type: in vivo, Sagittaria pygmaea; details: postemergence weeds, rated 3 to 4 weeks after treatment
Method in brief: as §4

CN1C(=O)C(CC(=O)Nc2ccccc2)SC1=Nc1cc(-n2c(=O)cc(C(F)(F)F)n(C)c2=O)c(F)cc1Cl (stereo not drawn) [Compound 91, 2-{{2-Chloro-5-[3,6-dihydro-3-methyl-2,6-dioxo-4-(trifluoromethyl)-1(2H)-pyrimidinyl]-4-fluorophenyl}imino}-3-methyl-4-oxo-5-thiazolidineacetanilide]
GLXMAW herbicidal rating ([1]; rate 0.0158 kg/ha): 4.5 | GLXMAW herbicidal rating ([1]; rate 0.0315 kg/ha): 4.5 | GLXMAW herbicidal rating ([1]; rate 0.0630 kg/ha): 5.5 | ECHORC herbicidal effect rating ([2]; 0.0313 kg/ha): 0.0 | ECHORC herbicidal effect rating ([2]; 0.0625 kg/ha): 0.0 | ECHORC herbicidal effect rating ([2]; 0.1250 kg/ha): 2.0 | ECHORC herbicidal effect rating ([2]; 0.2500 kg/ha): 4.0 | SETVI rating (SETVI (Foxtail, Green); 0.1250 kg/ha): 0.0 | SETVI rating (SETVI (Foxtail, Green); 0.2500 kg/ha): 0.0 | GALAP rating (GALAP (Galium) [3]; 0.1250 kg/ha): 0.0 | GALAP rating (GALAP (Galium) [3]; 0.2500 kg/ha): 0.0 | SAGPY herbicidal effect rating ([4]; 0.0313 kg/ha): 0.0 | SAGPY herbicidal effect rating ([4]; 0.0625 kg/ha): 0.0 | SAGPY herbicidal effect rating ([4]; 0.1250 kg/ha): 0.0 | SAGPY herbicidal effect rating ([4]; 0.2500 kg/ha): 0.0 | GALAP herbicidal rating (GALAP (Galium) [5]; rate 0.0158 kg/ha): 0.0 | GALAP herbicidal rating (GALAP (Galium) [5]; rate 0.0315 kg/ha): 0.0 | GALAP herbicidal rating (GALAP (Galium) [5]; rate 0.0630 kg/ha): 0.0 | TRZAWR herbicidal rating ([6]; rate 0.0158 kg/ha): 2.5 | TRZAWR herbicidal rating ([6]; rate 0.0315 kg/ha): 3.0 | TRZAWR herbicidal rating ([6]; rate 0.0630 kg/ha): 4.0 | ORYSAT rating (ORYSAT (Rice, Tebonnet); 0.1250 kg/ha): 0.0 | ORYSAT rating (ORYSAT (Rice, Tebonnet); 0.2500 kg/ha): 0.0 | AMBEL herbicidal rating (AMBEL (Ragweed, Common); rate 0.0158 kg/ha): 0.0 | AMBEL herbicidal rating (AMBEL (Ragweed, Common); rate 0.0315 kg/ha): 0.0 | AMBEL herbicidal rating (AMBEL (Ragweed, Common); rate 0.0630 kg/ha): 4.0 | CYPSE herbicidal effect rating (CYPSE (Flatsedge); 0.0313 kg/ha): 0.0 | CYPSE herbicidal effect rating (CYPSE (Flatsedge); 0.0625 kg/ha): 0.0 | CYPSE herbicidal effect rating (CYPSE (Flatsedge); 0.1250 kg/ha): 0.0 | CYPSE herbicidal effect rating (CYPSE (Flatsedge); 0.2500 kg/ha): 0.0 | MOOVA herbicidal effect rating (MOOVA (Monochoria); 0.0313 kg/ha): 9.0 | MOOVA herbicidal effect rating (MOOVA (Monochoria); 0.0625 kg/ha): 9.0 | MOOVA herbicidal effect rating (MOOVA (Monochoria); 0.1250 kg/ha): 9.0 | MOOVA herbicidal effect rating (MOOVA (Monochoria); 0.2500 kg/ha): 9.0 | Herbicidal rating ECHORC ([7]; Rate 0.0313 kg/ha): 0.0 | Herbicidal rating ECHORC ([7]; Rate 0.0625 kg/ha): 0.0 | Herbicidal rating ECHORC ([7]; Rate 0.1250 kg/ha): 2.0 | Herbicidal rating ECHORC ([7]; Rate 0.2500 kg/ha): 4.0 | CASOB herbicidal rating (CASOB (Sicklepod); rate 0.0158 kg/ha): 0.0 | CASOB herbicidal rating (CASOB (Sicklepod); rate 0.0315 kg/ha): 0.0 | CASOB herbicidal rating (CASOB (Sicklepod); rate 0.0630 kg/ha): 4.0 | Herbicidal rating SAGPY ([8]; Rate 0.0313 kg/ha): 0.0 | Herbicidal rating SAGPY ([8]; Rate 0.0625 kg/ha): 0.0 | Herbicidal rating SAGPY ([8]; Rate 0.1250 kg/ha): 0.0 | Herbicidal rating SAGPY ([8]; Rate 0.2500 kg/ha): 0.0

CN1C(=O)C(CC(=O)OCCF)SC1=Nc1cc(-n2c(=O)cc(C(F)(F)F)n(C)c2=O)c(F)cc1Cl (stereo not drawn) [Compound 93, 2-Fluoroethyl 2-{{2-chloro-5-[3,6-dihydro-3-methyl-2,6-dioxo-4-(trifluoromethyl)-1(2H)-pyrimidinyl]-4-fluorophenyl}imino}-3-methyl-4-oxo-5-thiazolidineacetate]
GLXMAW herbicidal rating ([1]; rate 0.0158 kg/ha): 8.5 | GLXMAW herbicidal rating ([1]; rate 0.0315 kg/ha): 9.0 | GLXMAW herbicidal rating ([1]; rate 0.0630 kg/ha): 9.0 | ECHORC herbicidal effect rating ([2]; 0.0313 kg/ha): 0.0 | ECHORC herbicidal effect rating ([2]; 0.0625 kg/ha): 3.0 | ECHORC herbicidal effect rating ([2]; 0.1250 kg/ha): 4.0 | ECHORC herbicidal effect rating ([2]; 0.2500 kg/ha): 7.0 | SETVI rating (SETVI (Foxtail, Green); 0.0313 kg/ha): 0.0 | SETVI rating (SETVI (Foxtail, Green); 0.0625 kg/ha): 0.0 | SETVI rating (SETVI (Foxtail, Green); 0.1250 kg/ha): 0.0 | SETVI rating (SETVI (Foxtail, Green); 0.2500 kg/ha): 9.0 | GALAP rating (GALAP (Galium) [3]; 0.0313 kg/ha): 0.0 | GALAP rating (GALAP (Galium) [3]; 0.0625 kg/ha): 0.0 | GALAP rating (GALAP (Galium) [3]; 0.1250 kg/ha): 9.0 | GALAP rating (GALAP (Galium) [3]; 0.2500 kg/ha): 9.0 | SAGPY herbicidal effect rating ([4]; 0.0313 kg/ha): 0.0 | SAGPY herbicidal effect rating ([4]; 0.0625 kg/ha): 0.0 | SAGPY herbicidal effect rating ([4]; 0.1250 kg/ha): 3.0 | SAGPY herbicidal effect rating ([4]; 0.2500 kg/ha): 9.0 | GALAP herbicidal rating (GALAP (Galium) [5]; rate 0.0158 kg/ha): 0.0 | GALAP herbicidal rating (GALAP (Galium) [5]; rate 0.0315 kg/ha): 5.0 | GALAP herbicidal rating (GALAP (Galium) [5]; rate 0.0630 kg/ha): 6.0 | TRZAWR herbicidal rating ([6]; rate 0.0158 kg/ha): 5.0 | TRZAWR herbicidal rating ([6]; rate 0.0315 kg/ha): 6.0 | TRZAWR herbicidal rating ([6]; rate 0.0630 kg/ha): 7.5 | ORYSAT rating (ORYSAT (Rice, Tebonnet); 0.0313 kg/ha): 0.0 | ORYSAT rating (ORYSAT (Rice, Tebonnet); 0.0625 kg/ha): 0.0 | ORYSAT rating (ORYSAT (Rice, Tebonnet); 0.1250 kg/ha): 2.0 | ORYSAT rating (ORYSAT (Rice, Tebonnet); 0.2500 kg/ha): 4.0 | AMBEL herbicidal rating (AMBEL (Ragweed, Common); rate 0.0158 kg/ha): 9.0 | AMBEL herbicidal rating (AMBEL (Ragweed, Common); rate 0.0315 kg/ha): 9.0 | AMBEL herbicidal rating (AMBEL (Ragweed, Common); rate 0.0630 kg/ha): 9.0 | CYPSE herbicidal effect rating (CYPSE (Flatsedge); 0.0313 kg/ha): 0.0 | CYPSE herbicidal effect rating (CYPSE (Flatsedge); 0.0625 kg/ha): 0.0 | CYPSE herbicidal effect rating (CYPSE (Flatsedge); 0.1250 kg/ha): 5.0 | CYPSE herbicidal effect rating (CYPSE (Flatsedge); 0.2500 kg/ha): 9.0 | MOOVA herbicidal effect rating (MOOVA (Monochoria); 0.0313 kg/ha): 9.0 | MOOVA herbicidal effect rating (MOOVA (Monochoria); 0.0625 kg/ha): 9.0 | MOOVA herbicidal effect rating (MOOVA (Monochoria); 0.1250 kg/ha): 9.0 | MOOVA herbicidal effect rating (MOOVA (Monochoria); 0.2500 kg/ha): 9.0 | Herbicidal rating ECHORC ([7]; Rate 0.0313 kg/ha): 0.0 | Herbicidal rating ECHORC ([7]; Rate 0.0625 kg/ha): 3.0 | Herbicidal rating ECHORC ([7]; Rate 0.1250 kg/ha): 4.0 | Herbicidal rating ECHORC ([7]; Rate 0.2500 kg/ha): 7.0 | CASOB herbicidal rating (CASOB (Sicklepod); rate 0.0158 kg/ha): 0.0 | CASOB herbicidal rating (CASOB (Sicklepod); rate 0.0315 kg/ha): 1.0 | CASOB herbicidal rating (CASOB (Sicklepod); rate 0.0630 kg/ha): 2.0 | Herbicidal rating SAGPY ([8]; Rate 0.0313 kg/ha): 0.0 | Herbicidal rating SAGPY ([8]; Rate 0.0625 kg/ha): 0.0 | Herbicidal rating SAGPY ([8]; Rate 0.1250 kg/ha): 3.0 | Herbicidal rating SAGPY ([8]; Rate 0.2500 kg/ha): 9.0
